Data taken from US20250144067A1, “PERSONALIZED STARVATION THERAPY FOR CANCER” (Faeth Therapeutics, Inc., priority 2021, published 2025).
Where a name gives a salt, the structure may show the parent alone. Numbered stars: 1 amine (or outer) side, 2 acyl side, 3 side chain; on linkers, the order of the positions; unused ones are H or OH. Bridge positions count the residues as written; N and C are the ends. Square brackets hold non-standard residues; d marks the D form. Peptide text beside a SMILES is read from it. * marks the point of attachment. pTerphenylCO(4''-OnC5H11) = CCCCCOc1ccc(-c2ccc(-c3ccc(C(=O)*)cc3)cc2)cc1; Orn(4R-OH,5R-OH) = O=C([C@H](C[C@@H](O)[C@@H](O)N[*:3])N[*:1])[*:2]; hTyr(3S-OH,4S-OH) = N[C@H](C(=O)O)[C@H](O)[C@@H](O)c1ccc(O)cc1; Pro(3S-OH,4S-Me) = C[C@H]1CN[C@H](C(=O)O)[C@H]1O; Hyp = O=C(O)[C@@H]1C[C@@H](O)CN1

How the values were obtained:
[1] = system: NCI-H292 lung cancer cells; assay: FDA drug screening, complete media vs cholesterol-free media with simvastatin (TABLE 2); format: cell-based, human; details: for Cholesterol-free media + simvastatin (0.04 μM) / Complete Media: NCI-H292 cells
[2] = system: NCI-H292 lung cancer cells; assay: FDA drug screening, complete media vs cholesterol-free media without statin (TABLE 1); format: cell-based, human
[3] = FDA drug library screen, cholesterol-free media with simvastatin 0.04 μM
[4] = FDA drug library screen, complete media
[5] = complete media vs cholesterol-free media + simvastatin (0.04 μM), >0 enhanced anti-cancer activity, about 0 neutral, <0 antagonist
[6] = NCI-H292 cells, cholesterol-free media without statin, FDA drug library screen
[7] = NCI-H292 cells, complete media, FDA drug library screen
[8] = complete vs cholesterol-free media, >0 enhanced anti-cancer activity, about 0 neutral, <0 antagonist
[9] = complete media minus cholesterol-free media + simvastatin, >0 enhanced anti-cancer activity, about 0 neutral, <0 antagonist
[10] = NCI-H292 cells, cholesterol-free media without statin
[11] = complete vs cholesterol-free media, greater than 0 enhanced anti-cancer activity, about 0 neutral, below 0 antagonists
[12] = FDA library drug in cholesterol-free media with simvastatin 0.04 μM
[13] = FDA library drug in complete media
[14] = drug in cholesterol-free media with simvastatin 0.04 μM
[15] = Complete minus Cholesterol-free, greater than 0 enhanced anti-cancer activity, about 0 neutral, below 0 antagonist
[16] = NCI-H292 cells, FDA drug library screen, cholesterol-free media without statin
[17] = NCI-H292 cells, FDA drug library screen, complete media
[18] = Complete minus Cholesterol-free, >0 enhanced anti-cancer activity, about 0 neutral, <0 antagonist
[19] = cholesterol-free media with simvastatin 0.04 μM, cell growth value in FDA drug screen
[20] = complete media, cell growth value in FDA drug screen
[21] = Complete minus Cholesterol-free, greater than 0 enhanced anti-cancer activity, about 0 neutral, below 0 antagonists
[22] = NCI-H292 cells in cholesterol-free media without statin
[23] = NCI-H292 cells in complete media
[24] = cholesterol-free media with simvastatin 0.04 μM, FDA drug library screen (TABLE 2)
[25] = complete media, FDA drug library screen (TABLE 2)
[26] = complete media minus cholesterol-free media + simvastatin (0.04 μM), >0 enhanced anti-cancer activity, about 0 neutral, <0 antagonist

| Compound | Cholesterol-free media + simvastatin (0.04 μM) [1, 3] | Complete Media [1, 4] | Difference [1, 5] | Cholesterol-free [2, 6] | Complete [2, 7] | Difference [2, 8] | Difference [1, 9] | Cholesterol-free [2, 10] | Complete ([2]; NCI-H292 cells, complete media) | other results |
| --- | --- | --- | --- | --- | --- | --- | --- | --- | --- | --- |
| CN(C)CCC=C1c2ccccc2CCc2ccccc21 [Amitriptyline (hydrochloride)] | 0.9551 | 0.8184 | −0.14 | 0.8567 | 1.344 | 0.49 |  |  |  |  |
| CC(C)c1ccc2oc3nc(N)c(C(=O)O)cc3c(=O)c2c1 [Amlexanox] | 0.7766 | 1.161 |  |  |  |  | 0.38 | 1.264 | 0.8551 | Difference [2, 11]: −0.41 |
| CCOC(=O)C1=C(COCCN)NC(C)=C(C(=O)OC)C1c1ccccc1Cl (stereo not shown) [Amlodipine] | 1.424 | 1.705 |  | 0.797 | 1.434 | 0.64 | 0.28 |  |  |  |
| CCN(CC)Cc1cc(Nc2ccnc3cc(Cl)ccc23)ccc1O [Amodiaquine (dihydrochloride dihydrate)] | 1.209 | 1.606 |  | 0.9158 | 1.353 | 0.44 | 0.40 |  |  |  |
| CCN(CC)Cc1cc(Nc2ccnc3cc(Cl)ccc23)ccc1O [Amodiaquine (dihydrochloride)] |  |  | −0.71 |  |  |  |  | 1.475 | 1.037 | Cholesterol-free media + simvastatin (0.04 μM) [1, 12]: 1.766; Complete Media [1, 13]: 1.059; Difference [2, 11]: −0.44 |
| CCC(C)(C)c1ccc(CC(C)CN2C[C@@H](C)O[C@@H](C)C2)cc1 (stereo partly shown) [Amorolfine (hydrochloride)] | 0.4078 | 1.021 |  |  |  |  | 0.61 | 1.233 | 0.8449 | Difference [2, 11]: −0.39 |
| Clc1ccc2c(c1)C(N1CCNCC1)=Nc1ccccc1O2 [Amoxapine] |  |  | −0.57 | 1.3 | 1.39 | 0.09 |  |  |  | Cholesterol-free media + simvastatin (0.04 μM) [1, 12]: 1.586; Complete Media [1, 13]: 1.017 |
| CC1(C)S[C@@H]2[C@H](NC(=O)[C@H](N)c3ccc(O)cc3)C(=O)N2[C@H]1C(=O)[O-].[Na+] [Amoxicillin (sodium)] |  |  | −0.18 |  |  |  |  |  |  | Cholesterol-free media + simvastatin (0.04 μM) [1, 14]: 0.9358; Complete Media ([1]; drug in complete media): 0.759; Difference [2, 15]: −0.16; Cholesterol-free [2, 16]: 0.8965; Complete [2, 17]: 0.7329 |
| CC1(C)S[C@@H]2[C@H](NC(=O)[C@H](N)c3ccc(O)cc3)C(=O)N2[C@H]1C(=O)O [Amoxicillin (trihydrate)] | 0.7666 | 1.02 |  | 0.8623 | 0.9771 | 0.11 | 0.25 |  |  |  |
| CC1(C)S[C@@H]2[C@H](NC(=O)[C@H](N)c3ccc(O)cc3)C(=O)N2[C@H]1C(=O)O [Amoxicillin] | 0.9948 | 1.386 |  | 0.9555 | 1.159 | 0.20 | 0.39 |  |  |  |
| C[C@@H]1[C@H](O)[C@@H](C)/C=C/C=C/C=C/C=C/C=C/C=C/C=C/[C@H](O[C@@H]2O[C@H](C)[C@@H](O)[C@H](N)[C@@H]2O)C[C@@H]2O[C@](O)(C[C@@H](O)C[C@@H](O)[C@H](O)CC[C@@H](O)C[C@@H](O)CC(=O)O[C@H]1C)C[C@H](O)[C@H]2C(=O)O [Amphotericin B] |  |  | −0.26 | 1.082 | 1.128 |  |  |  |  | Cholesterol-free media + simvastatin (0.04 μM) [1, 14]: 1.212; Complete Media ([1]; drug in complete media): 0.9521; Difference [2, 18]: 0.05 |
| CC1(C)S[C@@H]2[C@H](NC(=O)[C@H](N)c3ccccc3)C(=O)N2[C@H]1C(=O)[O-].[Na+] [Ampicillin (sodium)] |  |  | −0.22 |  |  |  |  | 1.356 | 0.9032 | Cholesterol-free media + simvastatin (0.04 μM) [1, 14]: 1.087; Complete Media ([1]; drug in complete media): 0.8623; Difference [2, 11]: −0.45 |
| CC1(C)S[C@@H]2[C@H](NC(=O)[C@H](N)c3ccccc3)C(=O)N2[C@H]1C(=O)O [Ampicillin] |  |  | −0.31 | 0.9318 | 1.363 | 0.43 |  |  |  | Cholesterol-free media + simvastatin (0.04 μM) [1, 12]: 1.07; Complete Media [1, 13]: 0.7564 |
| CCOC(=O)OC(C)OC1=C(C(=O)Nc2ccccn2)N(C)S(=O)(=O)c2ccccc21 (stereo not shown) [Ampiroxicam] |  |  |  | 0.9909 | 0.9596 |  | 0.07 |  |  | Cholesterol-free media + simvastatin (0.04 μM) [1, 19]: 1.311; Complete Media [1, 20]: 1.382; Difference [2, 18]: −0.03 |
| CC(C)CN(C[C@@H](O)[C@H](Cc1ccccc1)NC(=O)O[C@H]1CCOC1)S(=O)(=O)c1ccc(N)cc1 [Amprenavir] | 1.669 | 1.996 |  | 0.8915 | 1.403 | 0.51 | 0.33 |  |  |  |
| Nc1cc(-c2ccncc2)c[nH]c1=O [Amrinone] |  |  | −0.21 |  |  |  |  |  |  | Cholesterol-free media + simvastatin (0.04 μM) [1, 14]: 1.157; Complete Media ([1]; drug in complete media): 0.9441; Difference [2, 21]: −0.48; Cholesterol-free [2, 22]: 1.339; Complete [2, 23]: 0.861 |
| COc1cc(NS(C)(=O)=O)ccc1Nc1c2ccccc2nc2ccccc12 [Amsacrine (hydrochloride)] |  |  | −0.44 | 0.2374 | 0.2416 |  |  |  |  | Cholesterol-free media + simvastatin (0.04 μM) [1, 12]: 0.8278; Complete Media [1, 13]: 0.3873; Difference [2, 18]: 0.00 |
| COc1cc(NS(C)(=O)=O)ccc1Nc1c2ccccc2nc2ccccc12 [Amsacrine] |  |  |  |  |  |  |  | 0.3482 | 0.1517 | Cholesterol-free media + simvastatin (0.04 μM) [1, 24]: 0.3844; Complete Media [1, 25]: 0.346; Difference [1, 26]: −0.04; Difference [2, 18]: −0.20 |
| Cc1cc2ncc(C(=O)NCC(C)(C)NCC(=O)N3CCC[C@H]3C#N)cn2n1 [Anagliptin] | 1.09 | 0.9692 | −0.12 |  |  |  |  | 1.234 | 1.003 | Difference [2, 18]: −0.23 |
| O=C1CN2Cc3c(ccc(Cl)c3Cl)N=C2N1 [Anagrelide (hydrochloride)] |  |  | −0.27 |  |  |  |  | 0.988 | 0.7326 | Cholesterol-free media + simvastatin (0.04 μM) [1, 12]: 1.221; Complete Media [1, 13]: 0.9483; Difference [2, 18]: −0.26 |
| CN(C)N(C)C(=O)[C@@]1(Cc2ccccc2)CCCN(C(=O)[C@@H](Cc2c[nH]c3ccccc23)NC(=O)C(C)(C)N)C1 [Anamorelin (hydrochloride)] |  |  |  |  |  |  |  |  |  | Cholesterol-free media + simvastatin (0.04 μM) [1, 24]: 1.088; Complete Media [1, 25]: 1.064; Difference [1, 26]: −0.02; Difference [2, 21]: −0.93; Cholesterol-free [2, 22]: 1.922; Complete [2, 23]: 0.9877 |
| CN(C)N(C)C(=O)[C@@]1(Cc2ccccc2)CCCN(C(=O)[C@@H](Cc2c[nH]c3ccccc23)NC(=O)C(C)(C)N)C1 [Anamorelin] |  |  |  |  |  |  | 0.10 |  |  | Cholesterol-free media + simvastatin (0.04 μM) [1, 19]: 1.263; Complete Media [1, 20]: 1.358; Difference [2, 21]: −0.54; Cholesterol-free [2, 22]: 1.02; Complete [2, 23]: 0.4827 |
| CC(C)(C#N)c1cc(Cn2cncn2)cc(C(C)(C)C#N)c1 [Anastrozole] |  |  |  |  |  |  |  | 1.263 | 0.9847 | Cholesterol-free media + simvastatin (0.04 μM) [1, 24]: 1.07; Complete Media [1, 25]: 1.045; Difference [1, 26]: −0.02; Difference [2, 18]: −0.28 |
| C=C1CC[C@@H]2[C@](C)(CO)[C@H](O)CC[C@@]2(C)[C@@H]1C/C=C1/C(=O)OC[C@H]1O [Andrographolide] | 1.859 |  |  | 0.8912 | 0.9868 | 0.10 |  |  |  | Difference [1, 26]: −0.94 |
| COc1ccc(-c2cc(=S)ss2)cc1 [Anethole (trithione)] |  |  | −0.86 |  |  |  |  |  |  | Cholesterol-free media + simvastatin (0.04 μM) [1, 12]: 1.972; Complete Media [1, 13]: 1.115; Difference [2, 15]: −0.18; Cholesterol-free [2, 16]: 1.563; Complete [2, 17]: 1.382 |
| CCCCCOc1ccc(-c2ccc(-c3ccc(C(=O)N[C@H]4C[C@@H](O)[C@@H](O)NC(=O)[C@@H]5[C@@H](O)[C@@H](C)CN5C(=O)[C@H]([C@@H](C)O)NC(=O)[C@H]([C@H](O)[C@@H](O)c5ccc(O)cc5)NC(=O)[C@@H]5C[C@@H](O)CN5C(=O)[C@H]([C@@H](C)O)NC4=O)cc3)cc2)cc1 [Anidulafungin] ({pTerphenylCO(4''-OnC5H11)}-[Orn(4R-OH,5R-OH)]T[Hyp][hTyr(3S-OH,4S-OH)]T[Pro(3S-OH,4S-Me)]; lactam 1-C) | 1.251 |  |  |  |  |  |  | 1.481 | 1.247 | Difference ([1]; complete media minus cholesterol-free media + simvastatin (0.04 μM), […]): −1.03; Difference ([2]; Complete minus Cholesterol-free, […]): −0.23 |
